Legend:
Type in all cases: cell-based, human
[1] = tested on: WiDr colon tumor cells (W cells); assay: PIT method in vitro cell growth inhibition, WiDr; settings: amount which inhibits 50% of the cell growth
Protocol: (§1) The tests were carried out according to the method of R.van Lambalgen en P. Lelieveld, The PIT method: an automated in vitro technique for drug toxicity testing. Invest.
(§2) The ID50 values in ng/ml for the above compounds were determined according to the above mentioned procedure of van Lambalgen and Lelieveld.

[2] = tested on: IgR-37 melanoma (Z cells); assay: PIT method in vitro cell growth inhibition, IgR-37; settings: amount which inhibits 50% of the cell growth; IgR-37 cells
Protocol: as §1, §2

[3] = tested on: A 204 rhabdomyosarcoma (A cells); assay: PIT method in vitro cell growth inhibition, A 204; settings: amount which inhibits 50% of the cell growth; A 204 cells
Protocol: as §1, §2

[4] = tested on: MCF-7 mammary carcinoma (M cells); assay: PIT method in vitro cell growth inhibition, MCF-7; settings: amount which inhibits 50% of the cell growth; MCF-7 cells
Protocol: as §1, §2

[5] = tested on: T24 bladder carcinoma (T cells); assay: PIT method in vitro cell growth inhibition, T24; settings: amount which inhibits 50% of the cell growth
Protocol: as §1, §2

## N.N.[Cl][Pt][Cl] [cis platium, cis-(NH3)2PtCl2]
[1]
  ID50 values in ng/ml WiDr: 624 ng/mL
[2]
  ID50 values in ng/ml IgR-37: 878 ng/mL
[3]
  ID50 values in ng/ml A 204: 871 ng/mL
[4]
  ID50 values in ng/ml MCF-7: 850 ng/mL
[5]
  ID50 values in ng/ml T24: 268 ng/mL
